Laboratory results from patent US10717725B2, “Pyrrolidine GPR40 modulators” (BRISTOL-MYERS SQUIBB COMPANY, priority 2014, dated 2020).
Counter-ions that a name gives are not always drawn. Like-named read-outs stand apart in the source and are kept apart here.

Columns and labels:
[1] = target: T1, hGPR40 (Homo sapiens, UniProt O14842); assay: FDSS-based intracellular calcium assay in cell lines expressing GPR40; design: 3xFLAG; expressed in transfected cells; details: intracellular Ca2+ response, cells expressing GPR40, FDSS reader
Description: FDSS-Based Intracellular Calcium Assay
Cell lines expressing GPR40 are generated using the pDEST-3×FLAG gene expression system and are cultured in culture medium comprising the following components: F12 (Gibco #11765), 10% lipid deprived fetal bovine serum, 250 μg/ml zeocin and 500 μg/ml G418. To conduct the fluorescent imaging plate reader (FLIPR)-based calcium flux assay to measure intracellular Ca^2+ response, cells expressing GPR40 are plated on 384 well plates (BD Biocoat #356697) at a density of 20,000 cells/20 μL medium per well in phenol red and serum-free DMEM (Gibco #21063-029) and incubated overnight. Using BD kit #s 80500-310 or -301, the cells are incubated with 20 μL per well of Hank's buffered salt solution with 1.7 mM probenecid and Fluo-3 at 37° C. for 30 min. Compounds are dissolved in DMSO and diluted to desired concentrations with assay buffer and added to the cells as 3× solution (20 μL per well). Run fluorescence/luminescence reader FDSS (Hamamatsu) to read intracellular Ca^2+ response.

[2] = target: T1, hGPR40

T1 sequence (O14842 whole entry): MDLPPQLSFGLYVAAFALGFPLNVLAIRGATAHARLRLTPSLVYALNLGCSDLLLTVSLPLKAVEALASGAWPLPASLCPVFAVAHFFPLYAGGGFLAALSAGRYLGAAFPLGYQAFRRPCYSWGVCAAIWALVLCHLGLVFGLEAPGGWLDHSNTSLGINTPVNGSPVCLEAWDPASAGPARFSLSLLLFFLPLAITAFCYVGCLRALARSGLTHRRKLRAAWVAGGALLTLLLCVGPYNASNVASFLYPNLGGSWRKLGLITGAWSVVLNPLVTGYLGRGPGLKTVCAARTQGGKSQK

Compound | EC50 [1] | EC50 [2]
2-((2S,3S,4R)-1-(4-(((3,4-trans)-1-(5-Chloro-2-methoxypyridin-4-yl)-3-methylpiperidin-4-yl)oxy)phenyl)-4-(3-methoxy-2-methylpropoxy)-3-methylpyrrolidin-2-yl)acetic acid [Example 21, Isomer 1] | 0.12 µM | 
2-((2S,3S,4R)-1-(4-(((3,4-trans)-1-(5-Chloro-2-methoxypyridin-4-yl)-3-methylpiperidin-4-yl)oxy)phenyl)-4-(3-methoxy-2-methylpropoxy)-3-methylpyrrolidin-2-yl)acetic acid [Example 21, Isomer 2] | 0.1 µM | 
COCCCO[C@H]1CN(c2ccc(O[C@@H]3CCN(c4cc(OC)ncc4Cl)C[C@H]3C)cc2)[C@@H](CC(=O)O)[C@@H]1C (single isomer, unassigned) [Example 1] | 0.056 µM | 0.005 µM
COCCCO[C@H]1CN(c2ccc(OC3CCN(c4cc(OC)ncc4Cl)CC3C)c(F)c2)[C@@H](CC(=O)O)[C@@H]1C (single isomer, unassigned) [Example 7] | 0.097 µM | 
CCOc1ccc(F)c(N2CCC(Oc3ccc(N4C[C@H](OCCCOC)[C@@H](C)[C@@H]4CC(=O)O)cn3)C(C)C2)c1 (single isomer, unassigned) [Example 9, HCl] | 0.17 µM | 0.035 µM
CCOc1ccc(F)c(N2CCC(Oc3ccc(N4C[C@H](OCCCOC)[C@@H](C)[C@@H]4CC(=O)O)cc3)C(C)C2)c1 (single isomer, unassigned) [Example 14, HCl] | 0.051 µM | 0.007 µM
COCCCO[C@H]1CN(c2ccc(OC3CCN(c4cc(OC)ncc4Cl)CC3CC(C)C)nc2)[C@@H](CC(=O)O)[C@@H]1C (single isomer, unassigned) [Example 18, Isomer 1] | 1.3 µM | 
COCCCO[C@H]1CN(c2ccc(OC3CCN(c4cc(OC)ncc4Cl)CC3CC(C)C)nc2)[C@@H](CC(=O)O)[C@@H]1C (single isomer, unassigned) [Example 18, Isomer 2] | 0.29 µM | 
COCCCO[C@H]1CN(c2ccc(OC3CCN(c4cc(OC)ncc4Cl)CC3CC(C)C)cc2)[C@@H](CC(=O)O)[C@@H]1C (single isomer, unassigned) [Example 19, Isomer 1] | 1.5 µM | 
COCCCO[C@H]1CN(c2ccc(OC3CCN(c4cc(OC)ncc4Cl)CC3CC(C)C)cc2)[C@@H](CC(=O)O)[C@@H]1C (single isomer, unassigned) [Example 19, Isomer 2] | 0.23 µM | 
CCOc1ccc(F)c(N2CCC(Oc3ccc(N4C[C@H](OCCCOC)[C@@H](C)[C@@H]4CC(=O)O)cc3F)C(C)C2)c1 (single isomer, unassigned) [Example 20] | 0.11 µM | 
COCCCO[C@H]1CN(c2cnc(OC3CCN(c4cc(OC)ncc4Cl)CC3C)c(F)c2)[C@@H](CC(=O)O)[C@@H]1C (single isomer, unassigned) [Example 22] | 0.089 µM | 
CCCCOc1cc(N2C[C@H](OCCCOC)[C@@H](C)[C@@H]2CC(=O)O)cnc1OC1CCN(c2cc(OC)ncc2Cl)CC1C (single isomer, unassigned) [Example 23, TFA] | 0.11 µM | 
COCCCO[C@H]1CN(c2cnc(OC3CCN(c4cc(OC)ncc4Cl)CC3C)c(C(F)(F)F)c2)[C@@H](CC(=O)O)[C@@H]1C (single isomer, unassigned) [Example 24] | 0.065 µM | 
COCCCO[C@H]1CN(c2cnc(OC3CCN(c4cc(OC)ncc4Cl)CC3C)c(C)c2)[C@@H](CC(=O)O)[C@@H]1C (single isomer, unassigned) [Example 25] | 0.3 µM | 
COCCCO[C@H]1CN(c2ccc(OC3CCN(c4cc(OC)ncc4Cl)CC3C)cc2F)[C@@H](CC(=O)O)[C@@H]1C (single isomer, unassigned) [Example 26] | 0.11 µM | 
COCCCO[C@H]1CN(c2ccc(OC3CCN(c4cc(OC)ncc4Cl)CC3C)cc2F)[C@H](CC(=O)O)[C@@H]1C (single isomer, unassigned) [Example 27] | 2 µM | 
COCCOCO[C@H]1CN(c2ccc(OC3CCN(c4cc(OC)ncc4Cl)CC3C)cc2)[C@@H](CC(=O)O)[C@@H]1C (single isomer, unassigned) [Example 28] | 0.18 µM | 
COCCCO[C@H]1CN(c2ccc(OC3CCN(c4cc(OC)ncc4Cl)CC3C)nc2)[C@@H](CC(=O)O)[C@@H]1C (stereo partly drawn) [Example 2, 2-((2S,3S,4R)-1-(6-(((3,4-trans)-1-(5-Chloro-2-methoxypyridin-4-yl)-3-methylpiperidin-4-yl)oxy)pyridin-3-yl)-4-(3-methoxypropoxy)-3-methylpyrrolidin-2-yl)acetic acid, HCl] | 0.18 µM | 0.027 µM
CCOc1ccc(F)c(N2CCC(Oc3ccc(N4C[C@H](OCCCOC)[C@@H](C)[C@@H]4CC(=O)O)cc3)CC2)c1 [Example 3, 2-((2S,3S,4R)-1-(4-((1-(5-Ethoxy-2-fluorophenyl)piperidin-4-yl)oxy)phenyl)-4-(3-methoxypropoxy)-3-methylpyrrolidin-2-yl)acetic acid, HCl] | 0.2 µM | 
COCCCO[C@H]1CN(c2ccc(OC3CCN(c4cc(OC)ncc4Cl)CC3)cc2)[C@@H](CC(=O)O)[C@@H]1C [Example 4, 2-((2S,3S,4R)-1-(4-((1-(5-Chloro-2-methoxypyridin-4-yl)piperidin-4-yl)oxy)phenyl)-4-(3-methoxypropoxy)-3-methylpyrrolidin-2-yl)acetic acid] | 0.073 µM | 0.013 µM
CCOc1ccc(F)c(N2CCC(Oc3ccc(N4C[C@H](OCCCOC)[C@@H](C)[C@@H]4CC(=O)O)cn3)CC2)c1 [Example 5, 2-((2S,3S,4R)-1-(6-((1-(5-Ethoxy-2-fluorophenyl)piperidin-4-yl)oxy)pyridin-3-yl)-4-(3-methoxypropoxy)-3-methylpyrrolidin-2-yl)acetic acid] | 0.17 µM | 
COCCCO[C@H]1CN(c2ccc(OC3CCN(c4cc(OC)ncc4Cl)CC3)nc2)[C@@H](CC(=O)O)[C@@H]1C [Example 6, 2-((2S,3S,4R)-1-(6-((1-(5-Chloro-2-methoxypyridin-4-yl)piperidin-4-yl)oxy)pyridin-3-yl)-4-(3-methoxypropoxy)-3-methylpyrrolidin-2-yl)acetic acid] | 0.2 µM | 0.019 µM
CCc1cc(N2CCC(Oc3ccc(N4C[C@H](OCCCOC)[C@@H](C)[C@@H]4CC(=O)O)cc3)CC2)c(Cl)cn1 [Example 8, 2-((2S,3S,4R)-1-(4-((1-(5-Chloro-2-ethylpyridin-4-yl)piperidin-4-yl)oxy)phenyl)-4-(3-methoxypropoxy)-3-methylpyrrolidin-2-yl)acetic acid, HCl] | 1.1 µM | 
CCOc1ccc(F)c(N2CCC(Oc3ccc(N4C[C@H](CCCOC)C[C@@H]4CC(=O)O)cc3)CC2)c1 [Example 10, 2-((2R,4R)-1-(4-((1-(5-Ethoxy-2-fluorophenyl)piperidin-4-yl)oxy)phenyl)-4-(3-methoxypropyl)pyrrolidin-2-yl)acetic acid, TFA] | 0.38 µM | 0.047 µM
CCOc1ccc(F)c(N2CCC(Oc3ccc(N4C[C@H](OCCOC)C[C@@H]4CC(=O)O)cc3)CC2)c1 [Example 13, 2-((2R,4R)-1-(4-((1-(5-Ethoxy-2-fluorophenyl)piperidin-4-yl)oxy)phenyl)-4-(2-methoxyethoxy)pyrrolidin-2-yl)acetic acid, TFA] | 1 µM | 
CCOc1ccc(F)c(N2CCC(Oc3ccc(N4C[C@H](OCCCS(C)(=O)=O)[C@@H](C)[C@@H]4CC(=O)O)cc3)CC2)c1 [Example 16, 2-((2S,3 S,4R)-1-(4-((1-(5-Ethoxy-2-fluorophenyl)piperidin-4-yl)oxy)phenyl)-3-methyl-4-(3-(methylsulfonyl)propoxy)pyrrolidin-2-yl)acetic acid] | 0.98 µM | 
COCCCO[C@H]1CN(c2cnc(OC3CCN(c4cc(OC)ncc4Cl)CC3)c(C(F)(F)F)c2)[C@@H](CC(=O)O)[C@@H]1C [Example 30, 2-((2S,3S,4R)-1-(6-((1-(5-Chloro-2-methoxypyridin-4-yl)piperidin-4-yl)oxy)-5-(trifluoromethyl)pyridin-3-yl)-4-(3-methoxypropoxy)-3-methylpyrrolidin-2-yl) acetic acid] | 0.061 µM | 
COc1cc(N2CCC(Oc3ccc(N4C[C@H](OCCCC#N)[C@@H](C)[C@@H]4CC(=O)O)cc3)C(C)C2)c(Cl)cn1 (stereo partly drawn) [Example 32, 2-((2S,3S,4R)-1-(4-(((3,4-trans)-1-(5-Chloro-2-methoxypyridin-4-yl)-3-methylpiperidin-4-yl)oxy)phenyl)-4-(3-cyanopropoxy)-3-methylpyrrolidin-2-yl)acetic acid] | 0.19 µM | 
COCCCO[C@H]1CN(c2cnc(O[C@@H]3CCN(c4cc(OC)ncc4Cl)C[C@H]3C)nc2)[C@@H](CC(=O)O)[C@@H]1C [Example 33, 2-((2S,3 S,4R)-1-(2-(((3R,4R)-1-(5-Chloro-2-methoxypyridin-4-yl)-3-methylpiperidin-4-yl)oxy)pyrimidin-5-yl)-4-(3-methoxypropoxy)-3-methylpyrrolidin-2-yl)acetic acid] | 0.101 µM | 
